Legend:
Assay in all cases: KINOMEscan
Format in all cases: binding
FLT3 (D835V) = molecular target: T1, FLT3 (D835V) (Homo sapiens, UniProt P36888, D835V)
T1 construct: purchased Eurofins DiscoverX KINOMEscan
Outline: (§1)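 1 h RT binding → immobilized-ligand capture of free kinase → qPCR quantitation. Kd: 12 half-log points, max 33 μM.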

FLT3 (R834Q) = molecular target: T2, FLT3 (R834Q) (Homo sapiens, UniProt P36888, R834Q)
T2 construct: purchased Eurofins DiscoverX KINOMEscan
Outline: as §1

PIKFYVE = molecular target: T3, PIKFYVE (Homo sapiens, UniProt Q9Y2I7)
T3 construct: purchased Eurofins DiscoverX KINOMEscan
Outline: as §1

NDR1 = molecular target: T4, NDR1 (Homo sapiens, UniProt Q15208)
T4 construct: purchased Eurofins DiscoverX KINOMEscan
Outline: as §1

p38-α = molecular target: T5, p38-α (Homo sapiens, UniProt Q16539)
T5 construct: purchased Eurofins DiscoverX KINOMEscan
Outline: as §1

MET (Y1235D) = molecular target: T6, MET (Y1235D) (Homo sapiens, UniProt P08581, Y1235D)
T6 construct: purchased Eurofins DiscoverX KINOMEscan
Outline: as §1

PKMYT1 = molecular target: T7, PKMYT1 (Homo sapiens, UniProt Q99640)
T7 construct: purchased Eurofins DiscoverX KINOMEscan
Outline: as §1

PAK4 = molecular target: T8, PAK4 (Homo sapiens, UniProt O96013)
T8 construct: purchased Eurofins DiscoverX KINOMEscan
Outline: as §1

TIE1 = molecular target: T9, TIE1 (Homo sapiens, UniProt P35590)
T9 construct: purchased Eurofins DiscoverX KINOMEscan
Outline: as §1

NEK9 = molecular target: T10, NEK9 (Homo sapiens, UniProt Q8TD19)
T10 construct: purchased Eurofins DiscoverX KINOMEscan
Outline: as §1

WNK1 = molecular target: T11, WNK1 (Homo sapiens, UniProt Q9H4A3)
T11 construct: purchased Eurofins DiscoverX KINOMEscan
Outline: (§2)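 Compound and kinase were incubated at room temperature for 1 h, the free kinase fraction was captured with an immobilized affinity ligand, and capture was quantified by quantitative PCR; Kd values used a 12-point half-log series up to 33 μM.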

GSK3B = molecular target: T12, GSK3B (Homo sapiens, UniProt P49841)
T12 construct: purchased Eurofins DiscoverX KINOMEscan
Outline: as §2

PIK3CA = molecular target: T13, PIK3CA (Homo sapiens, UniProt P42336)
T13 construct: purchased Eurofins DiscoverX KINOMEscan
Outline: as §1

PIM3 = molecular target: T14, PIM3 (Homo sapiens, UniProt Q86V86)
T14 construct: purchased Eurofins DiscoverX KINOMEscan
Outline: as §1

MAPKAPK2 = molecular target: T15, MAPKAPK2 (Homo sapiens, UniProt P49137)
T15 construct: purchased Eurofins DiscoverX KINOMEscan
Outline: as §1

PIK3CA (E545A) = molecular target: T16, PIK3CA (E545A) (Homo sapiens, UniProt P42336, E545A)
T16 construct: purchased Eurofins DiscoverX KINOMEscan
Outline: as §1

MEK1 = molecular target: T17, MEK1 (Homo sapiens, UniProt Q02750)
T17 construct: purchased Eurofins DiscoverX KINOMEscan
Outline: as §1

STK39 = molecular target: T18, STK39 (Homo sapiens, UniProt Q9UEW8)
T18 construct: purchased Eurofins DiscoverX KINOMEscan
Outline: as §1

KIT (D816H) = molecular target: T19, KIT (D816H) (Homo sapiens, UniProt P10721, D816H)
T19 construct: purchased Eurofins DiscoverX KINOMEscan
Outline: as §1

SGK2 = molecular target: T20, SGK2 (Homo sapiens, UniProt Q9HBY8)
T20 construct: purchased Eurofins DiscoverX KINOMEscan
Outline: as §1

[1] = molecular target: T21, RSK2 (Kin. Dom.2-C-term.) (Homo sapiens, UniProt P51812)
T21 construct: RSK2 (Kin. Dom.2-C-term.); purchased Eurofins DiscoverX KINOMEscan
Outline: as §1

PFTAIRE2 = molecular target: T22, PFTAIRE2 (Homo sapiens, UniProt Q96Q40)
T22 construct: purchased Eurofins DiscoverX KINOMEscan
Outline: as §2

GRK4 = molecular target: T23, GRK4 (Homo sapiens, UniProt P32298)
T23 construct: purchased Eurofins DiscoverX KINOMEscan
Outline: as §1

DDR2 = molecular target: T24, DDR2 (Homo sapiens, UniProt Q16832)
T24 construct: purchased Eurofins DiscoverX KINOMEscan
Outline: as §1

MET = molecular target: T25, MET (Homo sapiens, UniProt P08581)
T25 construct: purchased Eurofins DiscoverX KINOMEscan
Outline: as §1

ABL1-non-P = molecular target: T26, ABL1-non-P (Homo sapiens, UniProt P00519)
T26 construct: purchased Eurofins DiscoverX KINOMEscan
Outline: as §1

DLK = molecular target: T27, DLK (Homo sapiens, UniProt Q12852)
T27 construct: purchased Eurofins DiscoverX KINOMEscan
Outline: as §1

CLK2 = molecular target: T28, CLK2 (Homo sapiens, UniProt P49760)
T28 construct: purchased Eurofins DiscoverX KINOMEscan
Outline: as §2

HUNK = molecular target: T29, HUNK (Homo sapiens, UniProt P57058)
T29 construct: purchased Eurofins DiscoverX KINOMEscan
Outline: as §2

EGFR = molecular target: T30, EGFR (Homo sapiens, UniProt P00533)
T30 construct: purchased Eurofins DiscoverX KINOMEscan
Outline: as §1

EIF2AK1 = molecular target: T31, EIF2AK1 (Homo sapiens, UniProt Q9BQI3)
T31 construct: purchased Eurofins DiscoverX KINOMEscan
Outline: as §1

ERBB4 = molecular target: T32, ERBB4 (Homo sapiens, UniProt Q15303)
T32 construct: purchased Eurofins DiscoverX KINOMEscan
Outline: as §2

MRCKB = molecular target: T33, MRCKB (Homo sapiens, UniProt Q9Y5S2)
T33 construct: purchased Eurofins DiscoverX KINOMEscan
Outline: as §1

BRK = molecular target: T34, BRK (Homo sapiens, UniProt Q13882)
T34 construct: purchased Eurofins DiscoverX KINOMEscan
Outline: as §1

CDC2L1 = molecular target: T35, CDC2L1 (Homo sapiens, UniProt P21127)
T35 construct: purchased Eurofins DiscoverX KINOMEscan
Outline: as §1

[2] = molecular target: T36, RSK1 (Kin. Dom.2-C-term.) (Homo sapiens, UniProt Q15418)
T36 construct: RSK1 (Kin. Dom.2-C-term.); purchased Eurofins DiscoverX KINOMEscan
Outline: as §1

EPHB3 = molecular target: T37, EPHB3 (Homo sapiens, UniProt P54753)
T37 construct: purchased Eurofins DiscoverX KINOMEscan
Outline: as §1

RIPK1 = molecular target: T38, RIPK1 (Homo sapiens, UniProt Q13546)
T38 construct: purchased Eurofins DiscoverX KINOMEscan
Outline: as §2

PRKCE = molecular target: T39, PRKCE (Homo sapiens, UniProt Q02156)
T39 construct: purchased Eurofins DiscoverX KINOMEscan
Outline: as §2

T25 sequence (P08581 25-1390): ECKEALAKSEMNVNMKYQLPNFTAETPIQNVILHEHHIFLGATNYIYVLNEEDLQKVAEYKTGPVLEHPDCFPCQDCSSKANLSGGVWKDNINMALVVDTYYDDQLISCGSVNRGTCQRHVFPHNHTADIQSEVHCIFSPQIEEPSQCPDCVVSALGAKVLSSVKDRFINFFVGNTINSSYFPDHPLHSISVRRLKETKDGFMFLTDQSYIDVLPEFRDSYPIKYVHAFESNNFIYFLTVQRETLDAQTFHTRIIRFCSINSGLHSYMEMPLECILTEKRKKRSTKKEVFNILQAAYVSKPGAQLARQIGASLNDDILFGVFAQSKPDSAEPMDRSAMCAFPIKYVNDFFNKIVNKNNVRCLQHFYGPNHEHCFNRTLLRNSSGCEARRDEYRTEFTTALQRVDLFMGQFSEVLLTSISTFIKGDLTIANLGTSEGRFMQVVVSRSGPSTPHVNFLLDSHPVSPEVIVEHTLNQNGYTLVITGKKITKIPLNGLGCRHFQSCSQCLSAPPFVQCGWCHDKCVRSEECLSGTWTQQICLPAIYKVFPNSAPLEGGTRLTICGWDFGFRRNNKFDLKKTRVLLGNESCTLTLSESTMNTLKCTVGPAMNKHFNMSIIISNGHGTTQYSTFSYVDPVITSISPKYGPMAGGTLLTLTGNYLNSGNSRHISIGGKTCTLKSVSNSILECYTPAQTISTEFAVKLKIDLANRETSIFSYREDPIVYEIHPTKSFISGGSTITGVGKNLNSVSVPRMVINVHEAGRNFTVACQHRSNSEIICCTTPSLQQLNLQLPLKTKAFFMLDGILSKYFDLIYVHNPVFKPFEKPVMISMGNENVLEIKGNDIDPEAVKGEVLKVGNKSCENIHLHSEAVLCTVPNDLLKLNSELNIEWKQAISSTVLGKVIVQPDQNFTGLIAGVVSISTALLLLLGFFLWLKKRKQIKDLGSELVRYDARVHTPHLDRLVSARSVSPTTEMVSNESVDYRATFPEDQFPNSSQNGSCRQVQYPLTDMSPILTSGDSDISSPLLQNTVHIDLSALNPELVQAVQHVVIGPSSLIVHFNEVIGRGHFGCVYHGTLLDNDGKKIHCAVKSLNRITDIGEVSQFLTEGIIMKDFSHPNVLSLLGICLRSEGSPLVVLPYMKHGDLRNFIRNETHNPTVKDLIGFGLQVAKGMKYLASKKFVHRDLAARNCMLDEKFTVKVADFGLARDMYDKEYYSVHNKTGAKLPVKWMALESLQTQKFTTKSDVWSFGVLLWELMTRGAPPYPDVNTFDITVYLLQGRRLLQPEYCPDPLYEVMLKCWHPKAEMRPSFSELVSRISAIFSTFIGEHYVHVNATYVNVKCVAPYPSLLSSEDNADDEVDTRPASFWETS
T9 sequence (P35590 22-1138): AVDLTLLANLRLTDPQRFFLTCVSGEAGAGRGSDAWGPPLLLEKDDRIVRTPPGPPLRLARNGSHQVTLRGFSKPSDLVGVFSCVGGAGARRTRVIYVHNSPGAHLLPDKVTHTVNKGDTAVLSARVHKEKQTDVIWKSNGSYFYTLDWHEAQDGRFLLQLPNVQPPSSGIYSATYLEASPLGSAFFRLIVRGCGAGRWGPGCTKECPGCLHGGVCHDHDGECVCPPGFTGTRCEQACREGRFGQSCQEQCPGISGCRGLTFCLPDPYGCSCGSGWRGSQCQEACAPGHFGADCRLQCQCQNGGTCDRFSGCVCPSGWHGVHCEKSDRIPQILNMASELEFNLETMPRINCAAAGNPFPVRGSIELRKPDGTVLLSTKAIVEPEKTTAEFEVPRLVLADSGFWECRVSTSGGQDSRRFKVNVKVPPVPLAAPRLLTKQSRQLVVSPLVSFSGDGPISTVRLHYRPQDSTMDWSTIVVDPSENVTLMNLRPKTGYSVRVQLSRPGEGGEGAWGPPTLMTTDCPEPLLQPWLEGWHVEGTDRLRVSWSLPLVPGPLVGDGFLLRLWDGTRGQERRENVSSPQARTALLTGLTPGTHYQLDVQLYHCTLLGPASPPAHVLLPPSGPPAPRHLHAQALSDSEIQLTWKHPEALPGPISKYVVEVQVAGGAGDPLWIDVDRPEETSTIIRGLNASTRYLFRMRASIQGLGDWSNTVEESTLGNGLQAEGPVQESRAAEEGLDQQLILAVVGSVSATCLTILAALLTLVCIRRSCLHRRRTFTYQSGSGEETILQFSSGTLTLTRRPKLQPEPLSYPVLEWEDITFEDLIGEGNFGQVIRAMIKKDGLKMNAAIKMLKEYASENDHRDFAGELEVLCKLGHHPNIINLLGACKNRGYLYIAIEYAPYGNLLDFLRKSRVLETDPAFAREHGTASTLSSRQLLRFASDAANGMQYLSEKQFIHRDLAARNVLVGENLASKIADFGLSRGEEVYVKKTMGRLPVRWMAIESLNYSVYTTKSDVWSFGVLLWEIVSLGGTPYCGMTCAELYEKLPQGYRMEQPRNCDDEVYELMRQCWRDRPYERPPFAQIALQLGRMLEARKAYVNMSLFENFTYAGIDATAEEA
T4 sequence (Q15208 whole entry): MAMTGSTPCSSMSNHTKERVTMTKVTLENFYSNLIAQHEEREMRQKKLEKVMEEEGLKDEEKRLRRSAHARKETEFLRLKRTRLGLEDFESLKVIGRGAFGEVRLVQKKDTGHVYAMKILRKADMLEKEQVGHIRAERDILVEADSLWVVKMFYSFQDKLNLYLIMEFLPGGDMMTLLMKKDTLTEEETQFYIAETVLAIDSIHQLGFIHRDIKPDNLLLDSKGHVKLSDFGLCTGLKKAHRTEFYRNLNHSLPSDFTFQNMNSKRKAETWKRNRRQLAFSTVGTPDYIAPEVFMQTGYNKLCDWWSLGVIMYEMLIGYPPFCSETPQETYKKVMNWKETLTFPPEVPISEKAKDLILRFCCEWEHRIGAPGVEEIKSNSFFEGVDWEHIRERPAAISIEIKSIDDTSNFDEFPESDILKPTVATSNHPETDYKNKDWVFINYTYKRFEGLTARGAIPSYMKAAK
T26 sequence (P00519 whole entry): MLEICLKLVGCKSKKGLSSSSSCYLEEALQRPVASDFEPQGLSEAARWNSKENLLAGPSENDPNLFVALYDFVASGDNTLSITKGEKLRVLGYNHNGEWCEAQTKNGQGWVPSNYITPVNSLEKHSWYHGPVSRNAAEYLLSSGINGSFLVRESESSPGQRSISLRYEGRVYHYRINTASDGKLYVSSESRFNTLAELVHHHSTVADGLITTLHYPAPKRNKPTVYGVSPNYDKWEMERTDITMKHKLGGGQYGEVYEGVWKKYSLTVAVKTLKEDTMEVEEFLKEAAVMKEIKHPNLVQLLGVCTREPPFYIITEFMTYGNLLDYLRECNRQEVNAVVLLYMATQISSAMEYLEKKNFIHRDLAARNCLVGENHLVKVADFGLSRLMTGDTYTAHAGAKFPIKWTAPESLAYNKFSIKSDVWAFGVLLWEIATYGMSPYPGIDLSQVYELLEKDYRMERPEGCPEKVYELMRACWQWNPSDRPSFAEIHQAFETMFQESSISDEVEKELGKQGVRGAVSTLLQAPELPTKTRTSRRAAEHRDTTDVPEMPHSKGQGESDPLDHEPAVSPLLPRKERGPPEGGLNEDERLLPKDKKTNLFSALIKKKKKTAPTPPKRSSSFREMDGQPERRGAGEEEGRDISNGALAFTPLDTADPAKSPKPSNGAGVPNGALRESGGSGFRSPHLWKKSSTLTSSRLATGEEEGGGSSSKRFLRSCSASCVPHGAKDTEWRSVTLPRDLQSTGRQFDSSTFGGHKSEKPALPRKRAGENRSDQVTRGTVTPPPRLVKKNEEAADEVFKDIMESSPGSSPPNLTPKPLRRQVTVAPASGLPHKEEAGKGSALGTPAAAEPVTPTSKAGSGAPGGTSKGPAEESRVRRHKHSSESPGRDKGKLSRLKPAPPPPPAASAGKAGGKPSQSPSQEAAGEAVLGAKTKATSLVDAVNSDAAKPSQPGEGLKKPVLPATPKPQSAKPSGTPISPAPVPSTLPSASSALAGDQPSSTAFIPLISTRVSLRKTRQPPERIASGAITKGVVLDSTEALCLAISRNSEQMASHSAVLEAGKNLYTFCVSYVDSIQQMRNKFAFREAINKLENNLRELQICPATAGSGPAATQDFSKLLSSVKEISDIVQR
T5 sequence (Q16539 whole entry): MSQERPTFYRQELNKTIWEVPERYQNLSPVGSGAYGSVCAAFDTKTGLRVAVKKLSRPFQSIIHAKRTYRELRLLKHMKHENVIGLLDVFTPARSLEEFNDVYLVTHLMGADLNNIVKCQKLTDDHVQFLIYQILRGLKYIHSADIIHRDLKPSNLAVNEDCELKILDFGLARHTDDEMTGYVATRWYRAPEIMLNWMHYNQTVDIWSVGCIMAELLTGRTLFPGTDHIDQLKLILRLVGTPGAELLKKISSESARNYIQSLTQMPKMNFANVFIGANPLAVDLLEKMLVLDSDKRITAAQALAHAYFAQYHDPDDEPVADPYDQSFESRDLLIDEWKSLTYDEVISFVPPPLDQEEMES
T28 sequence (P49760 whole entry): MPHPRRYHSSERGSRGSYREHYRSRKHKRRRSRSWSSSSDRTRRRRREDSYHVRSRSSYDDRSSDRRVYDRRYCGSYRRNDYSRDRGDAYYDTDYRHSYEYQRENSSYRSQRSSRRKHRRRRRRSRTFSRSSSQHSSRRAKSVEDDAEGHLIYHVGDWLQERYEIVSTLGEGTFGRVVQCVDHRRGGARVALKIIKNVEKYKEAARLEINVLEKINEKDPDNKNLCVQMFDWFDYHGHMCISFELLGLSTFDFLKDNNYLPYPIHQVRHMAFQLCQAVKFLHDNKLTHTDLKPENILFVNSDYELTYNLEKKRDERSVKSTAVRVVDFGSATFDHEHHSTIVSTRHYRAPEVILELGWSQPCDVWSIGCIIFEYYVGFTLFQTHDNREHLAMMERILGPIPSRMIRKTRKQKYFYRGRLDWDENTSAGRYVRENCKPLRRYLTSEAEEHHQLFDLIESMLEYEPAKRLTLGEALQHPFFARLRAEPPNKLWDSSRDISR

For `O=C1Nc2c(cc([N+](=O)[O-])c3c2CCCC3)C1=NO` [Compound 5d, 3-(Hydroxyimino)-5-nitro-1,3,6,7,8,9-hexahydro-2H-benzo[g]indol-2-one], which inhibition at 10 µM (FLT3 (D835V)) is on record?
The inhibition at 10 µM was 72%.

And the inhibition at 10 µM (FLT3 (R834Q))?
The inhibition at 10 µM was 10%.

And the inhibition at 10 µM (PIKFYVE)?
The inhibition at 10 µM was 28%.

And the inhibition at 10 µM (NDR1)?
The inhibition at 10 µM was 34%.

What about the inhibition at 10 µM (p38-α) of the same compound?
Its inhibition at 10 µM is 0%.

And the inhibition at 10 µM (MET (Y1235D))?
Its inhibition at 10 µM is 25%.

And the inhibition at 10 µM (PKMYT1)?
The inhibition at 10 µM was 0%.

What about the inhibition at 10 µM (PAK4) of the same compound?
The inhibition at 10 µM was 43%.

What about the inhibition at 10 µM (TIE1) of the same compound?
Its inhibition at 10 µM is 12%.

And the inhibition at 10 µM (NEK9)?
Its inhibition at 10 µM is 32%.

What about the inhibition at 10 µM (WNK1) of the same compound?
Its inhibition at 10 µM is 12%.

What about the inhibition at 10 µM (GSK3B) of the same compound?
Its inhibition at 10 µM is 29%.

What about the inhibition at 10 µM (PIK3CA) of the same compound?
Its inhibition at 10 µM is 0%.

What about the inhibition at 10 µM (PIM3) of the same compound?
Its inhibition at 10 µM is 95.8%.

And the inhibition at 10 µM (MAPKAPK2)?
Its inhibition at 10 µM is 9%.

And the inhibition at 10 µM (PIK3CA (E545A))?
Its inhibition at 10 µM is 30%.

And the inhibition at 10 µM (MEK1)?
Its inhibition at 10 µM is 93.1%.

And the inhibition at 10 µM (STK39)?
The inhibition at 10 µM was 53%.

What about the inhibition at 10 µM (KIT (D816H)) of the same compound?
The inhibition at 10 µM was 1%.

And the inhibition at 10 µM (SGK2)?
The inhibition at 10 µM was 88%.

And the inhibition at 10 µM [1]?
Its inhibition at 10 µM is 0%.

What about the inhibition at 10 µM (PFTAIRE2) of the same compound?
The inhibition at 10 µM was 6%.

And the inhibition at 10 µM (GRK4)?
Its inhibition at 10 µM is 34%.

What about the inhibition at 10 µM (DDR2) of the same compound?
The inhibition at 10 µM was 0%.

And the inhibition at 10 µM (MET)?
The inhibition at 10 µM was 63%.

What about the inhibition at 10 µM (ABL1-non-P) of the same compound?
Its inhibition at 10 µM is 54%.

And the inhibition at 10 µM (DLK)?
The inhibition at 10 µM was 23%.

What about the inhibition at 10 µM (CLK2) of the same compound?
The inhibition at 10 µM was 95.9%.

What about the inhibition at 10 µM (HUNK) of the same compound?
The inhibition at 10 µM was 0%.

What about the inhibition at 10 µM (EGFR) of the same compound?
Its inhibition at 10 µM is 15%.

What about the inhibition at 10 µM (EIF2AK1) of the same compound?
The inhibition at 10 µM was 40%.

What about the inhibition at 10 µM (ERBB4) of the same compound?
The inhibition at 10 µM was 4%.

And the inhibition at 10 µM (MRCKB)?
The inhibition at 10 µM was 0%.

What about the inhibition at 10 µM (BRK) of the same compound?
The inhibition at 10 µM was 0%.

And the inhibition at 10 µM (CDC2L1)?
The inhibition at 10 µM was 0%.

And the inhibition at 10 µM [2]?
The inhibition at 10 µM was 60%.

What about the inhibition at 10 µM (EPHB3) of the same compound?
Its inhibition at 10 µM is 0%.

And the inhibition at 10 µM (RIPK1)?
The inhibition at 10 µM was 0%.

What about the inhibition at 10 µM (PRKCE) of the same compound?
Its inhibition at 10 µM is 61%.

Source: article PMC12300041, “Tricyclic Isatin Derivatives as Anti-Inflammatory Compounds with High Kinase Binding Affinity” (Molecules, 2025)
